We go through one compound from US5912259A, “Method for treating and preventing neurodegenerative disorders by administering a thiazolidinone” (Warner-Lambert Company, priority 1998, dated 1999).

A short description of data set [1]: Toxicology studies in rats. The data set is classed as in vivo, rat. As for the experimental part:
(§1) As noted above, the thiazolidinone is additionally well-suited to treating elderly patients because of its long duration of action and its substantial lack of undesirable side effects. Toxicologic properties of the thiazolidinone were evaluated in single-dose oral and intravenous (IV) studies in mice and rats and multidose oral studies in rats and dogs. The thiazolidinone was tested in dogs and monkeys in escalating-dose oral toxicity to determine the most sensitive nonrodent species. […] The initial 13-week dog study was repeated to evaluate the reproducibility of the perivascular effects. Dose range-finding studies were performed in pregnant rats and rabbits, and genotoxic potential was assessed in vitro and in vivo. […] Based on exposure at the no-effect dose in definitive studies, the rat appears to be the most sensitive species followed by the dog and the monkey, albeit with minor differences in exposure between the species.

The test system of data set [2] is nitric oxide synthase, mixed cortical cultures. In words: Nitric oxide synthase activity / NO production in mixed cortical cultures. The class given is cell-based, fetal Sprague-Dawley rat. As for the experimental part: (§2) BV-2 microglia were grown in 6-well tissue culture plates in DMEM/F12 media supplemented with 10% fetal calf serum. Prior to activation, cells were given fresh media containing various amounts of thiazolidinone. One hour after drug treatment, microglia were activated with lipopolysaccharide (LPS, 4 μg/mL) and placed in an incubator at 37° C. in an atmosphere containing 5% CO2. After 16 hours, cultures were evaluated for inducible nitric oxide synthase (iNOS) activity and expression. iNOS activity was determined using the Griess reaction. Cell-free culture media was mixed with an equal volume of Griess reagent (one volume of 1.0% sulfanilamide in 5% phosphoric acid mixed with one volume of 0.1% naphthylenediamine dihydrochloride in water) and incubated for 5 minutes at room temperature. Absorbance was measured at 560 nm and the concentration within a sample was determined using sodium nitrite as standard. iNOS expression was evaluated by extracting cellular protein and performing Western blot analysis using a monoclonal antibody specific for iNOS.
Experiments using mixed cortical cultures were performed as described above. […]
Cerebral ischemia can be modeled in vitro by lowering oxygen and glucose in the media of cortical neurons. […] Cultures were read every 2 to 3 days thereafter by half volume (100 μL) replacement with DME/F12 (10% horse serum).

In data set [3] the test system is inducible nitric oxide synthase (iNOS), BV-2 microglia. The data set can be described thus: Nitric oxide production in LPS-activated BV-2 microglia (Griess reaction). The class given is cell-based. Particulars: Mus musculus, LPS 4 μg/mL, 16 hours, read-out: IC50, inhibition of nitric oxide production. As for the experimental part: as §2
Background: The Griess reaction detects nitrite, a stable product of nitric oxide.

The nature of data set [4]: Systemic exposure in rats. Particulars: rat, in vivo, 10 mg/kg. As for the experimental part: as §1
Another data set has as its system E-selectin. The data set can be described thus: Cell-surface expression of E-selectin. The data set is classed as cell-based.
The test system of a further data set is IL-1β. In words: Production of cytokine IL-1β. The data set is classed as cell-based.
For a further data set, the system named is ICAM-1. The data set can be described thus: Cell-surface expression of ICAM-1. The data set is classed as cell-based.
The nature of data set [5]: General pharmacokinetic and tolerability properties.
A further data set deals with NMDA-induced injury. Particulars: for percent protection against NMDA-induced injury: 15 minutes and 2.25 hours after NMDA. As for the experimental part: Intrastriatal injections of NMDA (15 nmol/0.5 μL) were performed in male and female Sprague-Dawley rat pups (Charles River Laboratory, Portage, Mich.) on Postnatal Day (PND) 7. The animals were anesthetized with ether, and the calvarium was exposed by a midline incision through the skin. The rat pups were placed in a plaster of paris mold that was secured to a small animal stereotaxic instrument (Kopf Instruments). NMDA (Sigma) was dissolved in 0.1 M phosphate-buffered saline (PBS) adjusted to pH 7.4 with 1 N NaOH. Injections of NMDA ([…]) were placed in the middle of the right posterior corpus striatum (coordinates relative to Bregma; AP -2.0 mm, ML 2.5 mm, at a depth of 4.0 mm from the dura) with a 26-gauge Hamilton syringe. The syringe was left in place for 2 minutes following the injections to limit leakage. Temperature of the animals was kept constant after surgery in a thermostatically controlled environment (HovaBator chick incubator; BFG Corp., Savannah, Ga.) set at 35° C. to 36° C. for 1 hour after the last drug or vehicle injection. Drug solutions were prepared in PBS and injected intraperitoneally (0.05 mL volume) 15 minutes, and 2.25 hours after intrastriatal injection of NMDA. Control animals received equal volumes of PBS.
After surgery, all animals were returned to the mothers for 5 days, and decapitated on PND 12. The brains were removed, the cerebral hemispheres were separated, and wet weights of each hemisphere were determined individually. Differences of the hemispheric weights were compared for each animal using the formula: 100×(C-I/C)=percent damage, a value that indicates the severity of damage of the injected (I) cerebral hemisphere relative to that of the uninjected contralateral (C) hemisphere. Percent protection is used to indicate the relative protection of the neuroprotective compound compared to the control and was calculated as: 100×[1-(% damagetreated /% damagecontrol)]. Data were expressed as mean percent damage±S.E.M. in all groups. Independent t-tests were used for statistical comparisons.

Setting [6] is: rats, definitive 13-week studies.

Read-outs that look alike come from different tables or passages of the source.

A word on the IC50: it is the midpoint of a concentration-inhibition curve. For orientation: Cmax means the maximum level reached in the sampled fluid or tissue. In general, AUC(0-t) refers to exposure summed from dosing to a finite time, without extrapolation to infinity. Turning to `CC(C)(C)c1cc(/C=C2\SC(N)=NC2=O)cc(C(C)(C)C)c1O` [CI-1004, (Z)-5-[[3,5-bis(1,1-dimethylethyl)-4-hydroxyphenyl]methylene]-2-imino-4-thiazolidinone methanesulfonate], in data set [1] (female rats, 10 mg/kg), the renal effects result is “Renal effects were seen”. Moreover, the toxic effects entry in data set [1] (male rats, 10 mg/kg) is on record as “No effects were observed”. Besides, the hepatic enzyme induction entry in data set [1] (rats) is reported as “hepatic enzyme induction which was not associated with overt organ toxicity”. Further, in data set [1] (setting [6]), the gastrointestinal effects entry is “gastrointestinal effects” and the renal effects result is “minor renal effects”. Moreover, the “increase in nitric oxide synthase activity on LPS activation” value in data set [2] (10 μM, LPS-activated) is “prevented the increase in nitric oxide synthase activity”. Moreover, in data set [2] (non-LPS activated cultures), the “basal NO production” value was “significant decrease in basal NO production”. In [3], the IC50 worked out at 2.4 µM. The “Cmax and AUC relative to male rats at the same dose” value in data set [4] was “approximately twice those in male rats at the same dose”. Besides, the Cmax in data set [4] (po) was determined as 0.97 µg/mL. Moreover, the AUC(0-t) at 24 h in [4] (po, male rats) came out at 16.5 µg·h/mL. In addition, the “cell-surface expression of E-selectin” value in the data set with E-selectin is reported as “blocks”. For the same compound, the “production of cytokine IL-1β” value in the data set on IL-1β is recorded as “blocks production of the cytokine IL-1β”. Further, in the data set on ICAM-1, the “cell-surface expression of ICAM-1” value is reported as “blocks”. In data set [5], the “GI tract and kidney tolerability” value is “relatively benign to the GI tract and kidneys”; the blood-brain barrier passage result is reported as “readily crosses the blood-brain barrier”; the half-life entry is on record as “relatively long half-life”. Moreover, the “percent protection against NMDA-induced injury” value with NMDA-induced injury (2×10 mg/kg i.p., p<0.04) is on record as 28.1±9.2%. In addition, in the data set on NMDA-induced injury (2×30 mg/kg i.p., p<0.001), the “percent protection against NMDA-induced injury” value stood at 49±8.2%. The “survival to PND 12” value with NMDA-induced injury (rat, in vivo, 30 mg/kg) is listed as “One animal dosed with thiazolidinone (2×30 mg/kg) did not survive to PND 12”.
